From patent EP0433457B1, “ANTIPRURITIC COMPOSITION” (SHISEIDO COMPANY LIMITED, priority 1989, dated 1990)
Structures can show the parent of a compound that is named as a salt.

What was measured:
bradykinin = experiment: Antipruritic effect test (therapeutical test) of chelated zinc compounds other than zinc picolinate, bradykinin; assay type: in vivo, guinea pigs; details: 1% (by weight), 0.1 ml applied 5 minutes after bradykinin 50 µg/0.5 ml intradermal; average score compared with Vehicle control group; 85% or less judged effective
Protocol: Healthy male guinea pigs (weighing 450 - 600 g) depilated at the right abdominal side part by electrical clippers on the previous day were divided into three groups of 6. At the right abdominal side part was intradermally administered 50 µg/0.5 ml of bradykinin, and 5 minutes later, one group was externally applied at the site where bradykinin had been applied with only the vehicle for external application (Vehicle control), and other groups with each 1% (by weight) concentration of samples in each 0.1 ml amount, and the average value of the scores of antipruritic activity by pruriginous behaviors was examined by comparison with the Vehicle control group.
The antipruritic effect was judged to be effective for an average value of the scores of 85% or less.

pruritus of bradykinin [1] = experiment: Antipruritic effect test, bradykinin pruriogeneic animal, sample applied immediately before bradykinin; assay type: in vivo, Hartley-strain male guinea pigs; details: bradykinin 10 µg/0.1 ml
Protocol: (§1) Using healthy Hartley-strain male guinea pigs, bradykinin, which is a pruriogeneic substance, was intradermally introduced at the side abdominal part to obtain a pruriogeneic animal.
(§2) The pruriginous behaviors were rated according to the standards shown below, and represented as pruriginous activity.
(§3) For four or six guinea pigs of one group, the above-mentioned behavior observation was conducted by three or more members at the same time for 20 minutes, and the pruriginous activity (score) determined as an average value ± standard deviation of the evaluation scores, and the antripruritic effect judged by the significance difference test with the Vehicle control group according to the Student's T test.
Immediately thereafter, bradykinin 10 µg/0.1 ml was subcutaneously administered at the same applied site, and the score (average value ± standard deviation) of pruriginous activity by pruriginous behaviors was examined by comparison.
As described above in (1), healthy male guinea pigs (weighing 450 - 600 g) depilated at the right abdominal side part by electrical clippers on the previous day were divided into four groups each of four, of which one group was externally applied at the right abdominal side part with only the vehicle for external application (Vehicle control), and other groups with respective preparations of a mixture group of 1.24% by weight of picolinic acid and 2.88% by weight of zinc sulfate corresponding respectively to the picolinic acid amount and the zinc amount of 3% by weight of zinc picolinate, a 2.88% by weight zinc sulfate single substance group and a 3.17% by weight of zinc pyrithione group corresponding to the zinc amount in each 0.1 ml amount. Immediately thereafter, bradykinin 10 µg/0.1 ml was subcutaneously administered at the same applied site, and the score of pruriginous activity by pruriginous behaviors was examined by comparison.

[2] = test system: histamine pruriogeneic animal; experiment: Antipruritic effect test of histamine pruriogeneic animal (therapeutical test); assay type: in vivo, Hartley-strain male guinea pigs; details: Table 10; 3 wt.%, 0.1 ml applied five minutes after histamine 50 µg/0.05 ml intradermal; vehicle control 16.6 ± 0.5
[3] = test system: kallikrein pruriogeneic animal; experiment: Antipruritic test of kallikrein pruriogeneic animal (therapeutical test); assay type: in vivo, Hartley-strain male guinea pigs
Text: There is already known a pruriogeneic substance other than bradyokinin which cannot be inhibited by antihistamines; namely, kallikrein (International Journal of Dermatology, Vol. 14, pages 465 - 484, 1975).
Using healthy Hartley-strain male guinea pigs, bradykinin, which is a pruriogeneic substance, was intradermally administered at the side abdominal part to obtain a pruriogeneic animal.
The pruriginous behaviors were rated according to the standards shown below and represented as pruriginous activity.
as §3, with “For” for “For four or”
Healthy male guinea pigs (weighing 450 - 600 g) depilated at the right abdominal side part by electrical clippers on the previous day were divided into three groups of six.
Using the same test method as in 4-1, animals were divided into four groups of 6.

[4] = test system: skin (Futat skin and Abraded skin); details: rabbit, in vivo
Protocol: The test was conducted according to the method of the FDA method (U.S. Food and Drug Administration method).
Eight Japanese White species rabbits weighing 2.3 to 3 kg were depilated at the back by electrical clippers and divided into two groups of four, one group being as such (Futat skin) and the other group having an abrasion made at the testing side (Adraded skin), and were fixed on a fixer. An amount of 0.3 ml of the test substance was applied to the skin by a sticking plaster for an animal test having a lint cloth 25 mm in diameter. After 24 hours, the sticking plaster was removed, and the reaction of the skin evaluated in terms of the degrees of erythema and edema, according to the following standards. The judgement was again performed 72 hours later.
The skin primary irritation evaluation score is shown by an average value obtained by adding average values of a judgement of the formation of erythema and edema after 24 and 72 hours for four rabbits with Futat skin and Abraded skin, and dividing the value by the animal test sample number of 4.
The standards of the evaluation score (average value) of the skin safety is as shown below. Evaluation score less than 2: slight irritation or substantially no irritation Evaluation score of 2 - 5: moderate irritation Evaluation score of 5 or more: strong irritation The results are shown in Table-2.

plasmin = molecular target: T1, plasmin (Homo sapiens, UniProt P00747); experiment: Antiplasmin activity, fibrin plate method; assay type: biochemical; details: 50% inhibition of fibrinolytic activity by plasmin; pre-incubation 37°C 30 minutes
T1 construct: purchased Sigma
T1 sequence (P00747 581-810 limits assumed, species assumed): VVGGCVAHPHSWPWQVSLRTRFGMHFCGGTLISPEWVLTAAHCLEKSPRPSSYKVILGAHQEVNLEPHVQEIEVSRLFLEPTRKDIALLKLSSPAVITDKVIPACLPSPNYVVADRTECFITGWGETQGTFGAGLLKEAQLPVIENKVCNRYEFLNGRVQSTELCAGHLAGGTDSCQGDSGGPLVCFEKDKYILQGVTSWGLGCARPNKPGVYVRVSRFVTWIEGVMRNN
T1 sequence (P00747 97-580 limits assumed, species assumed): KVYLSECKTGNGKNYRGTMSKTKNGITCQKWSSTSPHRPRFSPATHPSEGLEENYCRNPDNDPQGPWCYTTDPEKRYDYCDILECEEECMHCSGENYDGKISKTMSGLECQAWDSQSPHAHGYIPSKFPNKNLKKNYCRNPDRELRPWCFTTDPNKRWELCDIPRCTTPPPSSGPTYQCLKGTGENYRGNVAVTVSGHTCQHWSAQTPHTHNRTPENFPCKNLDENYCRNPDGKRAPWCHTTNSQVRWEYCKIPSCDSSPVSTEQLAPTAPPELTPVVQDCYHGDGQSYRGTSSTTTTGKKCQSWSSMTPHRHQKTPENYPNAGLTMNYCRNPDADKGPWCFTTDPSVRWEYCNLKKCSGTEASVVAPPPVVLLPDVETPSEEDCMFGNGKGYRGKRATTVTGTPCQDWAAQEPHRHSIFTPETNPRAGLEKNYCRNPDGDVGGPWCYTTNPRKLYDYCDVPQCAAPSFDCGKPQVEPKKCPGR
Protocol: The antiplasmin active action was determined as the sample amount necessary for a 50% inhibition (IC₅₀: mg/ml) from the inhibition ratio of the fibrinolytic activity by plasmin, by using the fibrin plate method.
A fibrin plate was prepared according to the method of Warren et al. (Hemostasis Vol. 4, page 110, 1975) by dissolving under heating 100 mg of agarose in 5 ml of a 0.01 M phosphate buffer supplemented with 0.15 M sodium chloride, followed by cooling to 50°C. In this solution was dissolved 10 mg of a plasminogen free fibrinogen (Daiichi Kagaku Yakuhin), and after 0.1 ml of a thrombin solution (100 units/ml, Mochida Seiyaku) was dropwise added to the solution, the mixture was immediately poured into a laboratory dish (diameter 9 cm, Terumo) and left to cool, to be thereby solidified. A plasminogen free fibrin plate was prepared. By forming a well 6 mm in diameter at the center of the dish.

[5] = test system: rats (Sprague Dawley strain); experiment: Acute toxicity tests; assay type: in vivo
Protocol: First, the toxicity of the antipruritic agent according to the present invention was examined. Acute toxicity tests were conducted by using healthy 5 to 6 weeks old male and female rats (Sprague Dawley strain). An oral administration was made by suspending zinc picolinate in 20% carboxymethyl cellulose, and a subcutaneous administration was made by suspending zinc picolinate in 10% carboxylmethyl cellulose.

pruritus of bradykinin [6] = experiment: Antipruritic effect test (therapeutical test), bradykinin pruriogeneic animal, sample applied 5 minutes after bradykinin; assay type: in vivo, Hartley-strain male guinea pigs; details: 1 wt.%
Protocol: as §1, §2, §3
Healthy guinea pigs (weighing 450 - 600 g) depilated at the right abdominal side part on the previous day were divided into three groups of 6.
Using the same test methods as described above, the zinc picolinate preparation and the crotamiton preparation each of 1% concentration were examined by comparison with the Vehicle control group.

[7] = Table 9, 3 wt.%, 0.1 ml applied after kallikrein intradermal, vehicle control 18.68 ± 2.06
[8] = Table 5, 0.1 ml applied 5 minutes after bradykinin 50 µg/0.05 ml intradermal, vehicle control 30.1 ± 3.6
[9] = Table 7, same test methods as above (therapeutical test, bradykinin), vehicle control 35.4 ± 3.1

Compound: zinc 4-methylpicolinate [Compound No. C]
- Pruritic activity score (%) (bradykinin): 74.1%

Compound: zinc 4-nitropicolinate [Compound No. Q]
- Pruritic activity score (%) (bradykinin): 58.3%

Compound: zinc 3-methylpicolinate [Compound No. B]
- Pruritic activity score (%) (bradykinin): 65.9%

Compound: zinc pyrithione [reference compound]
- Pruritic activity/20 min. (pruritus of bradykinin [1]; Table 6, 3.17 wt.%, 0.1 ml, vehicle control 40.1 ± 6.7): 43.4 ± 6.4

Compound: zinc 3-hexyloxypicolinate [J]
- Pruritic activity score (%) (bradykinin): 75.7%

Compound: zinc 5-propoxypicolinate [Compound No. E]
- Pruritic activity score (%) (bradykinin): 81.5%

Compound: zinc picolinate
- Pruritic activity/20 min. [2]: 7.4 ± 0.5
- Pruritic activity/20 min. ([3]; Table 8, 0.01 wt.%, 0.1 ml applied five minutes after kallikrein 25 units/0.05 ml intradermal, vehicle control 19.95 ± 2.41): 12.95 ± 0.95
- Pruritic activity/20 min. ([3]; Table 8, 10 wt.%, 0.1 ml applied five minutes after kallikrein 25 units/0.05 ml intradermal, vehicle control 19.95 ± 2.41): 12.85 ± 0.70
- Pruritic activity/20 min. [3, 7]: 12.95 ± 0.95
- Skin primary irritation evaluation score [4]: 1.6
- IC₅₀ (plasmin): 2.3 mg/mL
- Pruritic activity/20 min. (pruritus of bradykinin [1]; Table 4, 0.01 wt.%, 0.1 ml external, mean ± SD, vehicle control 45.7 ± 5.7): 17.5 ± 2.4
- Pruritic activity/20 min. (pruritus of bradykinin [1]; Table 4, 10 wt.%, 0.1 ml external, mean ± SD, vehicle control 45.7 ± 5.7): 15.5 ± 1.6
- Pruritic activity/20 min. (pruritus of bradykinin [1]; Table 6, 3 wt.%, 0.1 ml, vehicle control 40.1 ± 6.7): 17.7 ± 1.4^*1
- LD₅₀ value ([5]; Female rats, Oral): >2000 mg/kg
- Lethality ([5]; Female rats, Oral, dose 200 mg/kg, suspended in 20% carboxymethyl cellulose): 0/5
- Lethality ([5]; Female rats, Subcutaneous, dose 70 mg/kg): 0/5
- Lethality ([5]; Female rats, Subcutaneous, dose 91 mg/kg): 0/5
- Lethality ([5]; Female rats, Subcutaneous, dose 118 mg/kg): 2/5
- Lethality ([5]; Female rats, Subcutaneous, dose 154 mg/kg): 5/5
- Lethality ([5]; Female rats, Subcutaneous, dose 200 mg/kg): 5/5
- LD₅₀ value ([5]; Female rats, Subcutaneous, suspended in 10% carboxylmethyl cellulose): 122 mg/kg
- LD₅₀ value ([5]; Male rats, Oral): >2000 mg/kg
- Lethality ([5]; Male rats, Oral, dose 200 mg/kg, suspended in 20% carboxymethyl cellulose): 0/5
- Lethality ([5]; Male rats, Subcutaneous, dose 70 mg/kg): 0/5
- Lethality ([5]; Male rats, Subcutaneous, dose 91 mg/kg): 1/5
- Lethality ([5]; Male rats, Subcutaneous, dose 118 mg/kg): 2/5
- Lethality ([5]; Male rats, Subcutaneous, dose 154 mg/kg): 4/5
- Lethality ([5]; Male rats, Subcutaneous, dose 200 mg/kg): 5/5
- LD₅₀ value ([5]; Male rats, Subcutaneous, suspended in 10% carboxylmethyl cellulose): 121 mg/kg
- Pruritic activity/20 min. (pruritus of bradykinin [6]; [8]): 14.9 ± 0.3
- Pruritic activity/20 min. (pruritus of bradykinin [6]; [9]): 12.7 ± 0.7
- amount soluble in water as such: ≤ 0.5 % by weight

Compound: zinc 3-hydroxypicolinate
- Pruritic activity score (%) (bradykinin): 58.0%

Compound: zinc 4-undecylpicolinate [Compound No. N]
- Pruritic activity score (%) (bradykinin): 64.4%

Compound: zinc 6-hexyloxypicolinate [Compound No. K]
- Pruritic activity score (%) (bradykinin): 74.8%

Compound: zinc sulfate [reference compound]
- Pruritic activity/20 min. (pruritus of bradykinin [1]; Table 6, 2.88 wt.%, 0.1 ml, vehicle control 40.1 ± 6.7): 33.7 ± 5.2

Compound: zinc 4-t-butylpicolinate [Compound No. I]
- Pruritic activity score (%) (bradykinin): 63.3%

Compound: zinc 5-(2-ethylhexyloxy)picolinate [Compound No. L]
- Pruritic activity score (%) (bradykinin): 60.3%

Compound: zinc 6-undecylpicolinate [Compound No. O]
- Pruritic activity score (%) (bradykinin): 65.0%

Compound: zinc 6-butoxypicolinate [Compound No. H]
- Pruritic activity score (%) (bradykinin): 71.8%

Compound: zinc 3-undecylpicolinate [Compound No. M]
- Pruritic activity score (%) (bradykinin): 70.1%

Compound: CN(C)CCOC(c1ccccc1)c1ccccc1 [Diphenhydramine hydrochloride, reference compound]
- IC₅₀ (plasmin): No action at 10 mg/ml

Compound: zinc 4-chloropicolinate [Compound No. R]
- Pruritic activity score (%) (bradykinin): 18.5%

Compound: CC=CC(=O)N(CC)c1ccccc1C [Crotamiton, reference compound]
- Pruritic activity/20 min. [2]: 18.9 ± 2.5
- Pruritic activity/20 min. [3, 7]: 15.15 ± 1.92
- Pruritic activity/20 min. (pruritus of bradykinin [6]; [9]): 29.3 ± 3.3

Compound: zinc picolinate N-oxide [Compound No. P]
- Pruritic activity score (%) (bradykinin): 85.0%

Compound: zinc 4-carboxypicolinate [Compound No. S]
- Pruritic activity score (%) (bradykinin): 66.3%

Compound: CN(C)CCOC(c1ccccc1)c1ccccc1 [Diphenhydramine, reference compound]
- Pruritic activity/20 min. [2]: 12.4 ± 0.5
- Pruritic activity/20 min. [3, 7]: 17.00 ± 1.26
- Pruritic activity/20 min. (pruritus of bradykinin [1]; Table 4, 1 wt.%, 0.1 ml external, mean ± SD, vehicle control 45.7 ± 5.7): 36.9 ± 3.0
- Pruritic activity/20 min. (pruritus of bradykinin [6]; [8]): 27.9 ± 2.0

Compound: zinc 5-butoxypicolinate [Compound No. G]
- Pruritic activity score (%) (bradykinin): 66.2%

Compound: zinc 3-propoxypicolinate [Compound No. D]
- Pruritic activity score (%) (bradykinin): 41.2%
